Data from PubChem BioAssay AID624118 (National Center for Advancing Translational Sciences (NCATS), 2012).

Molecular target: Cytochrome P450 3A4 (Homo sapiens) (UniProt P08684)
Assay: qHTS Assay for Inhibitors of Bacillus subtilis Sfp phosphopantetheinyl transferase (PPTase): CYP 3A4
Conditions: CYP3A4 inhibition, 3 uM, ADME profiling; active compounds read high
Source text: The covalent attachment of a phosphopantetheinyl (4'-PP) arm to a variety of synthases and other proteins is a key posttranslational protein modification. The 4'-PP is installed on the proteins post-translationally from coenzyme A (CoA) on a conserved serine residue by action of phosphopantetheinyl transferase (PPTase) enzymes. Phosphopantetheinylation is essential for synthase activity, and removal of the PPTase gene precludes natural product synthesis in microorganisms, or in the case of fatty acid biosynthesis, renders the organism unviable. PPTase enzymes belong to a distinct structural superfamily. Within bacteria, these enzymes are grouped into two classes based upon primary structure, the AcpS-Type and Sfp-Type PPTases.
Sfp-type PPTases, corresponding to an activator of surfactin production in Bacillus subtilis, are responsible for modifying type I polyketide and nonribosomal peptide synthases of prokaryotes. Sfp-type PPTases are responsible for the activation of a variety of pathogen-associated virulence factors. Among these compounds are toxins such as mycolactone from Mycobacterium ulcerans, siderophores such as vibriobactin from Vibrio cholerae or mycobactin from Mycobacterium tuberculosis, as well as the mycolic acids which form the waxy cell wall of Mycobacteria. The biosyntheses of these natural products are considered attractive targets for drug design. […]

Sequence of Cytochrome P450 3A4 (Homo sapiens) (P08684 whole entry, looked up): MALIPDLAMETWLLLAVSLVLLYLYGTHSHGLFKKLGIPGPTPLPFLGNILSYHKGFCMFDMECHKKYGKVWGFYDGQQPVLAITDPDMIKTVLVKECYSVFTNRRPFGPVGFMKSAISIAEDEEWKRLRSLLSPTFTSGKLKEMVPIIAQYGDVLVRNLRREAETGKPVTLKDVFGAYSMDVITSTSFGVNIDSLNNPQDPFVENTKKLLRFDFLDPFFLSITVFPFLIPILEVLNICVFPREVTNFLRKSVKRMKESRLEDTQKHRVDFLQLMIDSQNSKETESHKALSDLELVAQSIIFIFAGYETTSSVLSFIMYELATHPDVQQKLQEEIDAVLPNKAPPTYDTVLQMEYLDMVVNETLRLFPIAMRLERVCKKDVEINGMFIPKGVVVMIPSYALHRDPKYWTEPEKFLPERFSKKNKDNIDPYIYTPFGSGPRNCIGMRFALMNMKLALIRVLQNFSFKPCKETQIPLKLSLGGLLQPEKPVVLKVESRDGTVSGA

inhibition: 20%
SMILES: COc1ccnc(NC(=S)N2CCN(c3ncc(C(F)(F)F)cc3Cl)CC2)c1
